Our source for the Ki, Relative Vmax and Km values is ChEMBL document CHEMBL1125568, “ATP-citrate lyase as a target for hypolipidemic intervention. Sulfoximine and 3-hydroxy-beta-lactam containing analogues of citric acid as potential tight-binding inhibitors” (J Med Chem, 1992).

One series addresses T1, ATP-citrate synthase (Rattus norvegicus, UniProt P16638).
T1 sequence (P16638 whole entry): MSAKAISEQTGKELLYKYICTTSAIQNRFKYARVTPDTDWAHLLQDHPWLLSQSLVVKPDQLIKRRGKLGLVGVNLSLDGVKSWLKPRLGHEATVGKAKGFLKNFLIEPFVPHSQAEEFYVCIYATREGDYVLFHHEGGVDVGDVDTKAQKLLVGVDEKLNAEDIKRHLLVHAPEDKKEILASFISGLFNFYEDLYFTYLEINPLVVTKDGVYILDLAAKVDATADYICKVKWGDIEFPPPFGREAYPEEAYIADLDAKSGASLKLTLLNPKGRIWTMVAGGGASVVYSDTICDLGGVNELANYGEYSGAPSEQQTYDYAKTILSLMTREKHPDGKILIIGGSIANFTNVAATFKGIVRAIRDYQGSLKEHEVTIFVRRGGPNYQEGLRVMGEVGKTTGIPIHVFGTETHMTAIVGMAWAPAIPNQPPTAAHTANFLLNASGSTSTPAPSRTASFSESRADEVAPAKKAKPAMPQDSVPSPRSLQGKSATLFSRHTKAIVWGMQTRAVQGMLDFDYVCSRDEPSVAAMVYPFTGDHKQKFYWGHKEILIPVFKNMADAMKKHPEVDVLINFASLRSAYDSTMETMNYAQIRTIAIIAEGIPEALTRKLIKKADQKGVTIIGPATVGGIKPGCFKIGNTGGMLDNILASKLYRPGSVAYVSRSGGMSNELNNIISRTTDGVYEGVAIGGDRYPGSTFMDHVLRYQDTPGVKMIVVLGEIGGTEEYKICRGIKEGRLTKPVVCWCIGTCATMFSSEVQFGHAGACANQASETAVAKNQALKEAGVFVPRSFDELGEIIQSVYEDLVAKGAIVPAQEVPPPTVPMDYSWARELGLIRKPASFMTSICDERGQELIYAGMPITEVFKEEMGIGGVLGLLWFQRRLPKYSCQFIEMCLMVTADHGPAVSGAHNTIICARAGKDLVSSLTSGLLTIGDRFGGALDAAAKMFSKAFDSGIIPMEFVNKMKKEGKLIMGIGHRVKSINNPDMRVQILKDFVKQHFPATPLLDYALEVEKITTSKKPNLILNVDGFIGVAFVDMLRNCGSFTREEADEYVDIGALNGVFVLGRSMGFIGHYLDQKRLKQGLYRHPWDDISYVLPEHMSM
The experiment in a line: Reversible binding Ki was measured by the inhibition of the carbon-carbon bond cleavage activity against rat ATP-Citrate Lyase.

Series [1] addresses T2, ATP-citrate synthase (Rattus norvegicus) (UniProt P16638).
T2 sequence (whole entry): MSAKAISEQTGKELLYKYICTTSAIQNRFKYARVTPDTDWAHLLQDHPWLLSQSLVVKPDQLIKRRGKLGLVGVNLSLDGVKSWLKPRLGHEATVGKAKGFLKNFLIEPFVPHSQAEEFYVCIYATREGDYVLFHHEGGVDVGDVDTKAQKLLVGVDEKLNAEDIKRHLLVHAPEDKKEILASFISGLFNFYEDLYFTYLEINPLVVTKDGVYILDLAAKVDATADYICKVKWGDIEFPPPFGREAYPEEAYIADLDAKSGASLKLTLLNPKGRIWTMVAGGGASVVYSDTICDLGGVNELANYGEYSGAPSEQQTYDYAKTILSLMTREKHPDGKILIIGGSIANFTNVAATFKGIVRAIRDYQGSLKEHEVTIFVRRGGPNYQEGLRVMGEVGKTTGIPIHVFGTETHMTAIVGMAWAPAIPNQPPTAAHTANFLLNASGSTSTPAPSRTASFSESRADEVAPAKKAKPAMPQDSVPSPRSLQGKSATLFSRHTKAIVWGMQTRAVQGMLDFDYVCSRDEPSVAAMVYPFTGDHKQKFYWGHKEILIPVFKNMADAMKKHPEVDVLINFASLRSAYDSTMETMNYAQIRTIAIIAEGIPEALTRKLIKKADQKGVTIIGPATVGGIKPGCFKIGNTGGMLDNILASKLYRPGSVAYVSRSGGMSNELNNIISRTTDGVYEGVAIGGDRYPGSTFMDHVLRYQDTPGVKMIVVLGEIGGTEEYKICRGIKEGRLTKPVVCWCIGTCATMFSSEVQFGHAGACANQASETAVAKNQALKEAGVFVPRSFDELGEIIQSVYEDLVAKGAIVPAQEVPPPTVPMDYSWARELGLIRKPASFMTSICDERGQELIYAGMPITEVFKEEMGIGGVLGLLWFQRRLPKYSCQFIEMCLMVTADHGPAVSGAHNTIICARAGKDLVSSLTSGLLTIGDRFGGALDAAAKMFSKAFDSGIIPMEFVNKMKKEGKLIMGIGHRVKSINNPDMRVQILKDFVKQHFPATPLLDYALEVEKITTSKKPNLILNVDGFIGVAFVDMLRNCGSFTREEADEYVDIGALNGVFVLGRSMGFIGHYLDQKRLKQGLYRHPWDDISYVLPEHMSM
Briefly: Inhibitory activity against rat ATP-Citrate lyase measured in terms of Vmax.

Compound in series [2]: C[S+](=N)([O-])C[C@@](O)(CC(=O)O)C(=O)O
Briefly: Inhibitory activity against rat ATP-Citrate lyase measured in terms of Km.

Substrate in series [3]: O=C(O)CC(O)(CC(=O)O)C(=O)O

Regarding `O=C(O)C[C@H](C[C@]1(O)CNC1=O)C(=O)O`, the Ki – broadly, a dissociation constant, usually derived from enzyme kinetics or from competition with a known ligand – on ATP-citrate synthase is above 9 mM. On ATP-citrate synthase, `O=C(O)C[C@H](C[C@@]1(O)CNC1=O)C(=O)O` returned an inhibitory constant (Ki) above 20 mM. Still for that read-out and setting: under `C[S+](=N)([O-])C[C@@](O)(CC(=O)O)C(=O)O` (stereo in doubt; 12a) [listing 1 of 2 here] stands 0.25 mM. Take `C[S+](=N)([O-])C[C@@](O)(CC(=O)O)C(=O)O` (stereo in doubt; 12a) [listing 2 of 2 here]: in series [1], the Relative Vmax was determined as 0.25.

On ATP-citrate synthase, `C[S+](=N)([O-])C[C@@](O)(CC(=O)O)C(=O)O` (stereo in doubt; 12b) [listing 1 of 2 here] gave a Ki above 10 mM. On to `C[S+](=N)([O-])C[C@@](O)(CC(=O)O)C(=O)O` (stereo in doubt; 12b) [listing 2 of 2 here], for which the Relative Vmax in series [1] is below 0.003.

B1: ATP-citrate synthase (Rattus norvegicus), P16638 (protein)
chain: MSAKAISEQTGKELLYKYICTTSAIQNRFKYARVTPDTDWAHLLQDHPWLLSQSLVVKPDQLIKRRGKLGLVGVNLSLDGVKSWLKPRLGHEATVGKAKGFLKNFLIEPFVPHSQAEEFYVCIYATREGDYVLFHHEGGVDVGDVDTKAQKLLVGVDEKLNAEDIKRHLLVHAPEDKKEILASFISGLFNFYEDLYFTYLEINPLVVTKDGVYILDLAAKVDATADYICKVKWGDIEFPPPFGREAYPEEAYIADLDAKSGASLKLTLLNPKGRIWTMVAGGGASVVYSDTICDLGGVNELANYGEYSGAPSEQQTYDYAKTILSLMTREKHPDGKILIIGGSIANFTNVAATFKGIVRAIRDYQGSLKEHEVTIFVRRGGPNYQEGLRVMGEVGKTTGIPIHVFGTETHMTAIVGMAWAPAIPNQPPTAAHTANFLLNASGSTSTPAPSRTASFSESRADEVAPAKKAKPAMPQDSVPSPRSLQGKSATLFSRHTKAIVWGMQTRAVQGMLDFDYVCSRDEPSVAAMVYPFTGDHKQKFYWGHKEILIPVFKNMADAMKKHPEVDVLINFASLRSAYDSTMETMNYAQIRTIAIIAEGIPEALTRKLIKKADQKGVTIIGPATVGGIKPGCFKIGNTGGMLDNILASKLYRPGSVAYVSRSGGMSNELNNIISRTTDGVYEGVAIGGDRYPGSTFMDHVLRYQDTPGVKMIVVLGEIGGTEEYKICRGIKEGRLTKPVVCWCIGTCATMFSSEVQFGHAGACANQASETAVAKNQALKEAGVFVPRSFDELGEIIQSVYEDLVAKGAIVPAQEVPPPTVPMDYSWARELGLIRKPASFMTSICDERGQELIYAGMPITEVFKEEMGIGGVLGLLWFQRRLPKYSCQFIEMCLMVTADHGPAVSGAHNTIICARAGKDLVSSLTSGLLTIGDRFGGALDAAAKMFSKAFDSGIIPMEFVNKMKKEGKLIMGIGHRVKSINNPDMRVQILKDFVKQHFPATPLLDYALEVEKITTSKKPNLILNVDGFIGVAFVDMLRNCGSFTREEADEYVDIGALNGVFVLGRSMGFIGHYLDQKRLKQGLYRHPWDDISYVLPEHMSM
On to B1, for which the Km – broadly, the concentration of substrate that gives half-maximal velocity – in series [2] stood at 1300 µM; in series [3], 110 µM.
